Tests used:
Assay type in all cases: in vivo
Male HLA-B27 rats [1] = test: HLA rat test for inflammatory bowel disease: stool character (3 = diarrhea; 2 = soft stool; 1 = normal stool); settings: Study B
[2] = test system: Progesterone receptor mRNA; test: Progesterone receptor mRNA regulation in the preoptic area of the rat brain; settings: 10 mg/kg
Male HLA-B27 rats [3] = test: HLA-B27 rat model of arthritis: joint scores; settings: Study 2
[4] = test system: Sexually immature 129 SvE mice; test: Mouse uterotrophic test procedure (Procedure 2); settings: compound 50 mg/kg s.c., days 22-25
Male HLA-B27 rats [5] = test: HLA-B27 rat test for inflammatory bowel disease: histological scoring of colon; settings: Study B, oral 4 weeks
Method: Representative metabolites of compounds of the invention were evaluated in the HLA rat standard pharmacological test procedure, which emulates inflammatory bowel disease in humans. The following briefly describes the procedure used and results obtained. […] Louis) and water. Stool quality was observed daily and graded according to the following scale: Diarrhea=3; soft stool=2; normal stool=1. At the end of the study, serum was collected and stored at −70° C. A section of colon was prepared for histological analysis and an additional segment was analyzed for myeloperoxidase activity. In Study A, rats (22-26 weeks old) were dosed subcutaneously once per day for seven days with one of the regimens listed below. […] Histological analysis. Colonic tissue was immersed in 10% neutral buffered formalin. Each specimen of colon was separated into four samples for evaluation. The formalin-fixed tissues were processed in a Tissue-Tek® vaccum infiltration processor (Miles, Inc; West Haven, Conn.) for paraffin embedding. The samples were sectioned at 5 μm and then stained with hematoxylin and eosin (H&E) for blinded histological evaluations using a scale modified after Boughton-Smith. After the scores were completed, the samples were unblinded, and data were tabulated and analyzed by ANOVA linear modeling with multiple mean comparisons. Sections of colonic tissue were evaluated for several disease indicators and given relative scores.

[6] = oral 20 mg/kg (10 mg/kg days 1-14), Day 16
[7] = oral 20 mg/kg (10 mg/kg days 1-14), Day 17
[8] = oral 20 mg/kg (10 mg/kg days 1-14), Day 19
[9] = oral 20 mg/kg (10 mg/kg days 1-14), Day 22
[10] = oral 20 mg/kg (10 mg/kg days 1-14), Day 23
[11] = oral 20 mg/kg (10 mg/kg days 1-14), Day 26
[12] = 10 mg/kg days 1-14, then 20 mg/kg

With `C=Cc1cc(O)cc2nc(-c3ccc(O)cc3F)oc12` [Example 25, 2-(2-FLUORO-4-HYDROXYPHENYL)-7-VINYL-1,3-BENZOXAZOL-5-OL] the “Stool Character (group's average score)” value (Male HLA-B27 rats [1]; oral 10 mg/kg, Day 1) was 1, the “Stool Character (group's average score)” value (Male HLA-B27 rats [1]; oral 10 mg/kg, Day 2) was 1 and the “Stool Character (group's average score)” value (Male HLA-B27 rats [1]; oral 10 mg/kg, Day 3) was 1.25. For the same compound, the “Stool Character (group's average score)” value (Male HLA-B27 rats [1]; oral 10 mg/kg, Day 4) was 1.25, the “Stool Character (group's average score)” value (Male HLA-B27 rats [1]; oral 10 mg/kg, Day 5) was 1.75 and the “Stool Character (group's average score)” value (Male HLA-B27 rats [1]; oral 10 mg/kg, Day 6) was 1.5. The “Stool Character (group's average score)” value (Male HLA-B27 rats [1]; oral 10 mg/kg, Day 9) was 1.75, the “Stool Character (group's average score)” value (Male HLA-B27 rats [1]; oral 10 mg/kg, Day 10) was 1.5 and the “Stool Character (group's average score)” value (Male HLA-B27 rats [1]; oral 10 mg/kg, Day 12) was 1.75. For the same compound, the “Stool Character (group's average score)” value (Male HLA-B27 rats [1]; oral 10 mg/kg, Day 13) was 2.25, the “Stool Character (group's average score)” value (Male HLA-B27 rats [1]; [6]) was 1.5 and the “Stool Character (group's average score)” value (Male HLA-B27 rats [1]; [7]) was 1.5. For the same compound, the “Stool Character (group's average score)” value (Male HLA-B27 rats [1]; oral 20 mg/kg (10 mg/kg days 1-14), Day 18) was 1.5, the “Stool Character (group's average score)” value (Male HLA-B27 rats [1]; [8]) was 1.25 and the “Stool Character (group's average score)” value (Male HLA-B27 rats [1]; [9]) was 1.25. For the same compound, the “Stool Character (group's average score)” value (Male HLA-B27 rats [1]; [10]) was 1.25, the “Stool Character (group's average score)” value (Male HLA-B27 rats [1]; oral 20 mg/kg (10 mg/kg days 1-14), Day 24) was 1.25 and the “Stool Character (group's average score)” value (Male HLA-B27 rats [1]; oral 20 mg/kg (10 mg/kg days 1-14), Day 25) was 1.25. The “Stool Character (group's average score)” value (Male HLA-B27 rats [1]; [11]) was 1.25, the “Progesterone receptor mRNA (mean ± stdev)” value (“Progesterone receptor mRNA” for short) [2] was 447.0 ± 60.7 arbitrary units and the Joint inflammation score (Male HLA-B27 rats [3]; oral 10 mg/kg, Day 1) was 0. It also gave a Joint inflammation score (Male HLA-B27 rats [3]; oral 10 mg/kg, Day 2) of 0, a Joint inflammation score (Male HLA-B27 rats [3]; oral 10 mg/kg, Day 3) of 0 and a Joint inflammation score (Male HLA-B27 rats [3]; oral 10 mg/kg, Day 4) of 0. It also gave a Joint inflammation score (Male HLA-B27 rats [3]; oral 10 mg/kg, Day 5) of 0, a Joint inflammation score (Male HLA-B27 rats [3]; oral 10 mg/kg, Day 6) of 0 and a Joint inflammation score (Male HLA-B27 rats [3]; oral 10 mg/kg, Day 7) of 0. For the same compound, the Joint inflammation score (Male HLA-B27 rats [3]; oral 10 mg/kg, Day 8) was 1, the Joint inflammation score (Male HLA-B27 rats [3]; oral 10 mg/kg, Day 10) was 2.25 and the Joint inflammation score (Male HLA-B27 rats [3]; oral 10 mg/kg, Day 11) was 2.25. For the same compound, the Joint inflammation score (Male HLA-B27 rats [3]; oral 20 mg/kg (10 mg/kg days 1-14), Day 15) was 3.75, the Joint inflammation score (Male HLA-B27 rats [3]; [6]) was 3 and the Joint inflammation score (Male HLA-B27 rats [3]; [7]) was 2.75. For the same compound, the Joint inflammation score (Male HLA-B27 rats [3]; [8]) was 1.5, the Joint inflammation score (Male HLA-B27 rats [3]; [9]) was 1.25 and the Joint inflammation score (Male HLA-B27 rats [3]; [10]) was 2.5. The Joint inflammation score (Male HLA-B27 rats [3]; [11]) was 1.75, the “mean uterine weight ± SEM” value [4] was 9.7 ± 1.0 mg and the “Fibrosis (0-2), mean ± SD” value (Male HLA-B27 rats [5]; [12]) was 0.31 ± 0.13. The “Inflammation (0-3), mean ± SD” value (Male HLA-B27 rats [5]; [12]) was 1.50 ± 0.35, the “Lesion depth (0-2), mean ± SD” value (Male HLA-B27 rats [5]; [12]) was 0.44 ± 0.24 and the “Total score, mean ± SD” value (Male HLA-B27 rats [5]; [12]) was 2.69 ± 0.52. The “Ulceration (0-2), mean ± SD” value (Male HLA-B27 rats [5]; [12]) was 0.44 ± 0.24.
For `C=Cc1cc(O)cc2nc(-c3ccc(O)c(F)c3F)oc12` [Example 26, 2-(2,3-DIFLUORO-4-HYDROXYPHENYL)-7-VINYL-1,3-BENZOXAZOL-5-OL], the “Progesterone receptor mRNA” value [2] was 467.8 ± 66.7 arbitrary units and the “mean uterine weight ± SEM” value [4] was 9.0 ± 0.3 mg.
With `C=CCc1cc(O)cc2nc(-c3ccc(O)c(F)c3)oc12` [Example 34, 7-ALLYL-2-(3-FLUORO-4-HYDROXYPHENYL)-1,3-BENZOXAZOL-5-OL] the “Stool Character (group's average score)” value (Male HLA-B27 rats [1]; oral 10 mg/kg, Day 1) was 1, the “Stool Character (group's average score)” value (Male HLA-B27 rats [1]; oral 10 mg/kg, Day 2) was 1 and the “Stool Character (group's average score)” value (Male HLA-B27 rats [1]; oral 10 mg/kg, Day 3) was 1. The “Stool Character (group's average score)” value (Male HLA-B27 rats [1]; oral 10 mg/kg, Day 4) was 1.25, the “Stool Character (group's average score)” value (Male HLA-B27 rats [1]; oral 10 mg/kg, Day 5) was 2 and the “Stool Character (group's average score)” value (Male HLA-B27 rats [1]; oral 10 mg/kg, Day 6) was 1.75. The “Stool Character (group's average score)” value (Male HLA-B27 rats [1]; oral 10 mg/kg, Day 7) was 1.75, the “Stool Character (group's average score)” value (Male HLA-B27 rats [1]; oral 10 mg/kg, Day 8) was 1.5 and the “Stool Character (group's average score)” value (Male HLA-B27 rats [1]; oral 10 mg/kg, Day 9) was 1.5. For the same compound, the “Stool Character (group's average score)” value (Male HLA-B27 rats [1]; oral 10 mg/kg, Day 10) was 1.25, the “Stool Character (group's average score)” value (Male HLA-B27 rats [1]; oral 10 mg/kg, Day 11) was 1.5 and the “Stool Character (group's average score)” value (Male HLA-B27 rats [1]; oral 10 mg/kg, Day 12) was 1.5. The “Stool Character (group's average score)” value (Male HLA-B27 rats [1]; oral 10 mg/kg, Day 13) was 1.25, the “Stool Character (group's average score)” value (Male HLA-B27 rats [1]; oral 10 mg/kg, Day 14) was 1.25 and the “Stool Character (group's average score)” value (Male HLA-B27 rats [1]; oral 10 mg/kg, Day 15) was 1.25. The “Stool Character (group's average score)” value (Male HLA-B27 rats [1]; oral 10 mg/kg, Day 16) was 1, the “Stool Character (group's average score)” value (Male HLA-B27 rats [1]; oral 10 mg/kg, Day 17) was 1 and the “Stool Character (group's average score)” value (Male HLA-B27 rats [1]; oral 10 mg/kg, Day 18) was 1.25. The “Stool Character (group's average score)” value (Male HLA-B27 rats [1]; oral 10 mg/kg, Day 19) was 1, the “Stool Character (group's average score)” value (Male HLA-B27 rats [1]; oral 10 mg/kg, Day 22) was 1 and the “Stool Character (group's average score)” value (Male HLA-B27 rats [1]; oral 10 mg/kg, Day 23) was 1. For the same compound, the “Stool Character (group's average score)” value (Male HLA-B27 rats [1]; oral 10 mg/kg, Day 24) was 1, the “Stool Character (group's average score)” value (Male HLA-B27 rats [1]; oral 10 mg/kg, Day 25) was 1 and the “Stool Character (group's average score)” value (Male HLA-B27 rats [1]; oral 10 mg/kg, Day 26) was 1. For the same compound, the “Progesterone receptor mRNA” value [2] was 511.5 ± 23.7 arbitrary units, the Joint inflammation score (Male HLA-B27 rats [3]; oral 10 mg/kg, Day 1) was 0 and the Joint inflammation score (Male HLA-B27 rats [3]; oral 10 mg/kg, Day 2) was 0. For the same compound, the Joint inflammation score (Male HLA-B27 rats [3]; oral 10 mg/kg, Day 3) was 0, the Joint inflammation score (Male HLA-B27 rats [3]; oral 10 mg/kg, Day 4) was 0 and the Joint inflammation score (Male HLA-B27 rats [3]; oral 10 mg/kg, Day 5) was 0. For the same compound, the Joint inflammation score (Male HLA-B27 rats [3]; oral 10 mg/kg, Day 6) was 0, the Joint inflammation score (Male HLA-B27 rats [3]; oral 10 mg/kg, Day 7) was 0 and the Joint inflammation score (Male HLA-B27 rats [3]; oral 10 mg/kg, Day 8) was 0.25. The Joint inflammation score (Male HLA-B27 rats [3]; oral 10 mg/kg, Day 9) was 0.75, the Joint inflammation score (Male HLA-B27 rats [3]; oral 10 mg/kg, Day 10) was 0.5 and the Joint inflammation score (Male HLA-B27 rats [3]; oral 10 mg/kg, Day 11) was 0.5. For the same compound, the Joint inflammation score (Male HLA-B27 rats [3]; oral 10 mg/kg, Day 12) was 0.25, the Joint inflammation score (Male HLA-B27 rats [3]; oral 10 mg/kg, Day 13) was 0.5 and the Joint inflammation score (Male HLA-B27 rats [3]; oral 10 mg/kg, Day 14) was 0. It also gave a Joint inflammation score (Male HLA-B27 rats [3]; oral 10 mg/kg, Day 15) of 0.5, a Joint inflammation score (Male HLA-B27 rats [3]; oral 10 mg/kg, Day 16) of 0.5 and a Joint inflammation score (Male HLA-B27 rats [3]; oral 10 mg/kg, Day 17) of 0.25. It also gave a Joint inflammation score (Male HLA-B27 rats [3]; oral 10 mg/kg, Day 18) of 0.75, a Joint inflammation score (Male HLA-B27 rats [3]; oral 10 mg/kg, Day 19) of 1 and a Joint inflammation score (Male HLA-B27 rats [3]; oral 10 mg/kg, Day 22) of 1. It also gave a Joint inflammation score (Male HLA-B27 rats [3]; oral 10 mg/kg, Day 23) of 1.75, a Joint inflammation score (Male HLA-B27 rats [3]; oral 10 mg/kg, Day 24) of 1.75 and a Joint inflammation score (Male HLA-B27 rats [3]; oral 10 mg/kg, Day 25) of 2. For the same compound, the Joint inflammation score (Male HLA-B27 rats [3]; oral 10 mg/kg, Day 26) was 3, the “Fibrosis (0-2), mean ± SD” value (Male HLA-B27 rats [5]; 10 mg/kg) was 0.31 ± 0.32 and the “Inflammation (0-3), mean ± SD” value (Male HLA-B27 rats [5]; 10 mg/kg) was 1.81 ± 0.13. For the same compound, the “Lesion depth (0-2), mean ± SD” value (Male HLA-B27 rats [5]; 10 mg/kg) was 0.63 ± 0.32, the “Total score, mean ± SD” value (Male HLA-B27 rats [5]; 10 mg/kg) was 3.50 ± 1.10 and the “Ulceration (0-2), mean ± SD” value (Male HLA-B27 rats [5]; 10 mg/kg) was 0.75 ± 0.46.

— patent publication US20060046968A1, “Prodrug substituted benzoxazoles as estrogenic agents” (priority 2004, published 2006)
